What was measured:
human BACE1 = human BACE1 (Homo sapiens, UniProt P56817); assay: Fluorescent kinetic assay (BACE-1, FRET peptide substrate WABC-6); assay type: biochemical; settings: 10 nM enzyme, 25 μM substrate WABC-6, 50 mM Na-Acetate pH 4.5, room temperature
Procedure: Evaluation of BACE-1 Binding Affinity of Test Compounds
1. Fluorescent Kinetic Assays • Final Assay Conditions: 10 nM human BACE1 (or 10 nM Murine BACE1, 1.5 nM human BACE2), 25 μM substrate (WABC-6, MW 1549.6, from AnaSpec), Buffer: 50 mM Na-Acetate, pH 4.5, 0.05% CHAPS, 25% PBS, room temperature. Na-Acetate was from Aldrich, Cat.# 24,124-5, CHAPS was from Research Organics, Cat. # 1304C 1×, PBS was from Mediatech (Cellgro), Cat# 21-031-CV, peptide substrate AbzSEVNLDAEFRDpa was from AnaSpec, Peptide Name: WABC-6 • Determination of stock substrate (AbzSEVNLDAEFRDpa) concentration: ˜25 mM stock solution is made in DMSO using the peptide weight and MW, and diluted to ˜25 μM (1:1000) in 1×PBS. Concentration is determined by absorbance at 354 nm using an extinction coefficient ε of 18172 M^−1 cm^−1, the concentration of stock substrate is corrected, and the substrate stock stored in small aliquots in −80° C. [Substrate Stock]=ABS^354 nm*10^6/18172 ([…]) The extinction coefficient ε^354 nm was adapted from TACE peptide substrate, which had the same quencher-fluorophore pair. • Determination of Stock Enzyme Concentration: the stock concentration of each enzyme is determined by absorbance at 280 nm using ε of 64150 M^−1 cm^−1 for hBACE1 and MuBACE1, 62870 M^−1 cm^−1 for hBACE2 in 6 M Guanidinium Hydrochloride (from Research Organics, Cat. # 5134G-2), pH ˜6. The extinction Coefficient ε^280 nm for each enzyme was calculated based on known amino acid composition and published extinction coefficients for Trp ([…]) and Tyr ([…]) residues (Anal. Biochem. 182, 319-326). • Dilution and mixing steps: total reaction volume: 100 μL
2× inhibitor dilutions in buffer A (66.7 mM Na-Acetate, pH 4.5, 0.0667% CHAPS) were prepared,
4× enzyme dilution in buffer A (66.7 mM Na-Acetate, pH 4.5, 0.0667% CHAPS) were prepared,
100 μM substrate dilution in 1×PBS was prepared, and […]

human BACE1, sequence (P56817 46-501): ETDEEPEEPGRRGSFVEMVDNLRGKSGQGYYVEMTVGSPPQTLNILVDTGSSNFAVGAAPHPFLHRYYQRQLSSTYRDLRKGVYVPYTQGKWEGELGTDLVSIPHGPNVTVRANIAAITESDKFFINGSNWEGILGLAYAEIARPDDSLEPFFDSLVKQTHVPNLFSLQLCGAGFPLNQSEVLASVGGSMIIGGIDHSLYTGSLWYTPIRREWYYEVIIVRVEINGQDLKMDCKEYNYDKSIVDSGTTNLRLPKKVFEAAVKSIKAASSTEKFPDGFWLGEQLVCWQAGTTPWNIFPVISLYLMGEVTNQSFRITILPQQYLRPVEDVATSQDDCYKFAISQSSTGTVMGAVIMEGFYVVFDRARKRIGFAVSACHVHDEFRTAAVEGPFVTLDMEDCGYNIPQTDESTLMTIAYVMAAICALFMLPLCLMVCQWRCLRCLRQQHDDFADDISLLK

IC50 (human BACE1)	melting point	SMILES
5.95 µM		NC(N)=NC(=O)Cc1c(-c2ccccc2)cccc1-c1ccc(Oc2ccccc2)cc1 [Example 4, N″-[(4-Phenoxy-1,1′:3′,1″-terphenyl-2′-yl)acetyl]guanidine]
13.9 µM	171 to 174 °C	CC(C)(C)c1ccc(-c2cccc(-c3ccccc3)c2CC(=O)NC(=N)N)cc1 [Example 3, N-[(4-tert-Butyl-1,1′:3′,1″-terphenyl-2′-yl)acetyl]guanidine]
15 µM	64 to 67 °C	N=C(N)NC(=O)Cc1c(-c2ccccc2)cccc1-c1ccccc1.O=C(O)C(F)(F)F [Example 1, N-(1,1′:3′,1″-Terphenyl-2′-ylacetyl)guanidine TFA salt]
29.6 µM	36.8 to 36.9 °C	N=C(N)NC(=O)Cc1c(-c2ccccc2)cccc1-c1ccc2ccccc2c1 [Example 2, N-{[3-(2-Naphthyl)-1,1′-biphenyl-2-yl]acetyl}guanidine]
